In US12018021B2 (UCB Biopharma SRL, priority 2018, dated 2024):

These molecules were tested against IgE-Tb / FcεRIα-Y131A-AF488 (Homo sapiens, UniProt P01854) (assay: IgE-Tb / FcεRIα-Y131A-AF488 FRET assay (protocol for examples 1 to 233)). Details: examples 1 to 233: 5 nM IgE-Tb, 25 nM FcεRIα-Y131A-AF488, incubated 2 hours at room temperature; read-out: Y131A FRET IC50 range.
Format: binding
Method: For examples 1 to 233, the assay was conducted according to the following: Each assay reaction was conducted in a volume of 25 μl in a 384-well half-volume plate. 10 point compound serial dilutions (3-fold) were generated in DMSO at a concentration of ×50 that of the final assay concentration (FAC). Compound solutions were then prepared by IgE-Tb diluting 10-fold in assay buffer. For the assay, 5 μl of diluted compound was added to 10 μl of, followed by addition of 10 μl FcεRIα-Y131A-AF488. FRET reagents FACs were 5 nM IgE-Tb, 25 nM FcεRIα-Y131A-AF488. Usually the top FAC of compound in the assay was 10 μM. The final DMSO concentration was 2%. The minimum signal (MIN) was measured by adding 5l unlabelled FcεRIα at 1 μM (FAC=200 nM) to the FRET reagents. The maximum FRET signal (MAX) was measured in wells containing FRET reagents but no compound. The assay was incubated for 2 hours at room temperature, protected from light and evaporation, and with gentle agitation.
Measurement of FRET for each well was carried out by exciting at 330 nm and measuring emission at 495/520 nm using an Envision plate reader (Perkin Elmer). FRET ratio was calculated as follows: Emission at 520/Emission at 495×1000.
The FRET ratio was used for the data analysis.
Z′ was calculated as follows (σ=standard deviation and μ=mean): 1−((3×σMAX)+(3×σMIN))/(μMAX−μMIN)
Z′ above 0.5 was considered a good assay.
Background signal (MIN) was subtracted from all wells. Using the background subtracted values, the percent inhibition by compound in each test-well was calculated as follows: 100−Test-well FRET ratio/MAX FRET ratio×100.
Percent inhibition was plotted against compound concentration. IC50 values for each compound were determined using four parameter logistic fit model using the XLFIT5 software package.

Chain of IgE-Tb / FcεRIα-Y131A-AF488 (P01854 1-427 limits assumed, stated change not applied): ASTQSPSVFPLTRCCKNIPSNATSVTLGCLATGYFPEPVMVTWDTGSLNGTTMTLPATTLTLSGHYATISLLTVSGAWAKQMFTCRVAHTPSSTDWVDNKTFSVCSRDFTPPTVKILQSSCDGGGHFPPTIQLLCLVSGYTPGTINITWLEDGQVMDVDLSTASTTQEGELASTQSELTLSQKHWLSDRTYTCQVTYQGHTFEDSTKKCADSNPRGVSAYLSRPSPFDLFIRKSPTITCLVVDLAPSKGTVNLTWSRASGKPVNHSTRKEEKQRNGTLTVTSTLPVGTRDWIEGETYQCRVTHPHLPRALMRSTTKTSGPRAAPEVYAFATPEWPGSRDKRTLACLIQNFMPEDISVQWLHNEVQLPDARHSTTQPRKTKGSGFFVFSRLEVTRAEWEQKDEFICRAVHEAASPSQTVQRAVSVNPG

Question: Which IC50 does the source give for `CCCC[S+]([O-])c1c(NC(=O)C2CC2)sc2c1CCCC2` (stereo not drawn) [Example 29, N-(3-Butylsulfinyl-4,5,6,7-tetrahydrobenzothiophen-2-yl)cyclopropanecarboxamide] here?
Answer: 1000 to 10000 nM

Question: With `Cc1ccc(NC(=NC#N)NC2CCc3sc(NC(=O)C4CC4)c(S(=O)(=O)NCC4CC4)c3C2)cc1` (stereo not drawn) [Example 30, N-[5-[[N′-Cyano-N-(p-tolyl)carbamimidoyl]amino]-3-(cyclopropylmethylsulfamoyl)-4,5,6,7-tetrahydrobenzothiophen-2-yl]cyclopropanecarboxamide] as the molecule, how does the IC50 read?
Answer: < 1000 nM

Question: `CCNC(=NC#N)NC1CCc2sc(NC(=O)C3CC3)c(S(=O)(=O)NCC3CC3)c2C1` (stereo not drawn) [Example 31, N-[5-[[N′-Cyano-N-ethyl-carbamimidoyl]amino]-3-(cyclopropylmethylsulfamoyl)-4,5,6,7-tetrahydrobenzothiophen-2-yl]cyclopropanecarboxamide] was tested. Which IC50 did it give?
Answer: < 1000 nM

Question: How did the IC50 turn out when `O=C1NCc2cc(NC(=O)C3CCc4sc(NC(=O)C5CC5)c(S(=O)(=O)NCC5CC5)c4C3)ccc21` (stereo not drawn) [Example 32, 2-(Cyclopropanecarbonylamino)-3-(cyclopropylmethylsulfamoyl)-N-(1-oxoisoindolin-5-yl)-4,5,6,7-tetrahydrobenzothiophene-5-carboxamide] was run?
Answer: < 1000 nM

Question: `NS(=O)(=O)c1cccc(NC(=O)C2CCc3sc(NC(=O)C4CC4)c(S(=O)(=O)NCC4CC4)c3C2)c1` (stereo not drawn) [Example 33, 2-(Cyclopropanecarbonylamino)-3-(cyclopropylmethylsulfamoyl)-N-(3-sulfamoylphenyl)-4,5,6,7-tetrahydrobenzothiophene-5-carboxamide] was tested. Which IC50 did it give?
Answer: < 1000 nM

Question: `CS(=O)(=O)c1cccc(NC(=O)C2CCc3sc(NC(=O)C4CC4)c(S(=O)(=O)NCC4CC4)c3C2)c1` (stereo not drawn) [Example 34, 2-(Cyclopropanecarbonylamino)-3-(cyclopropylmethylsulfamoyl)-N-(3-methylsulfonylphenyl)-4,5,6,7-tetrahydrobenzothiophene-5-carboxamide] was tested. Which IC50 did it give?
Answer: < 1000 nM

Question: With `O=C(Nc1cccc(-c2ccno2)c1)C1CCc2sc(NC(=O)C3CC3)c(S(=O)(=O)NCC3CC3)c2C1` (stereo not drawn) [Example 35, 2-(Cyclopropanecarbonylamino)-3-(cyclopropylmethylsulfamoyl)-N-(3-isoxazol-5-ylphenyl)-4,5,6,7-tetrahydrobenzothiophene-5-carboxamide] as the molecule, how does the IC50 read?
Answer: < 1000 nM

Question: For `CCOc1c(NC2CCc3sc(NC(=O)C4CC4)c(S(=O)(=O)NCC4CC4)c3C2)c(=O)c1=O` (stereo not drawn) [Example 36, N-[3-(Cyclopropylmethylsulfamoyl)-5-[(2-ethoxy-3,4-dioxo-cyclobuten-1-yl)amino]-4,5,6,7-tetrahydrobenzothiophen-2-yl]cyclopropanecarboxamide], which IC50 is on record?
Answer: < 1000 nM

Question: Which IC50 does the source give for `CCNc1c(NC2CCc3sc(NC(=O)C4CC4)c(S(=O)(=O)NCC4CC4)c3C2)c(=O)c1=O` (stereo not drawn) [Example 37, N-[3-(Cyclopropylmethylsulfamoyl)-5-[[2-(ethylamino)-3,4-dioxo-cyclobuten-1-yl]amino]-4,5,6,7-tetrahydrobenzothiophen-2-yl]cyclopropanecarboxamide] here?
Answer: < 1000 nM

Question: For `CCCCS(=N)(=O)c1c(NC(=O)C2CC2)sc2c1CCCC2` (stereo not drawn) [Example 38, N-[3-(Butylsulfonimidoyl)-4,5,6,7-tetrahydrobenzothiophen-2-yl]cyclopropanecarboxamide], which IC50 is on record?
Answer: 1000 to 10000 nM

Question: For `CCOC(=O)C1CCc2sc(NC(=O)C3CC3)c(C(=O)NCC3CC3)c2C1` (stereo not drawn) [Example 39, Ethyl 2-(cyclopropanecarbonylamino)-3-(cyclopropylmethylcarbamoyl)-4,5,6,7-tetrahydrobenzothiophene-5-carboxylate], which IC50 is on record?
Answer: 1000 to 10000 nM

Question: Which IC50 does the source give for `O=C(NCC1CC1)c1c(NC(=O)C2CC2)sc2c1CC(C(=O)O)CC2` (stereo not drawn) [Example 40, 2-(Cyclopropanecarbonylamino)-3-(cyclopropylmethylcarbamoyl)-4,5,6,7-tetrahydrobenzothiophene-5-carboxylic acid] here?
Answer: 10000 to 50000 nM

Question: `O=C1NCc2cc(NC(=O)C3CCc4sc(NC(=O)C5CC5)c(C(=O)NCC5CC5)c4C3)ccc21` (stereo not drawn) [Example 41, 2-(Cyclopropanecarbonylamino)-N3-(cyclopropylmethyl)-N5-(1-oxoisoindolin-5-yl)-4,5,6,7-tetrahydrobenzothiophene-3,5-dicarboxamide] was tested. Which IC50 did it give?
Answer: < 1000 nM

Question: `O=C1CC(c2cccc(NC(=O)C3CCc4sc(NC(=O)C5CC5)c(C(=O)NCC5CC5)c4C3)c2)CN1` (stereo not drawn) [Example 42, 2-(Cyclopropanecarbonylamino)-N3-(cyclopropylmethyl)-N5-[3-(5-oxopyrrolidin-3-yl)phenyl]-4,5,6,7-tetrahydrobenzothiophene-3,5-dicarboxamide] was tested. Which IC50 did it give?
Answer: < 1000 nM

Question: For `CC1=NN(c2cccc(NC(=O)C3CCc4sc(NC(=O)C5CC5)c(C(=O)NCC5CC5)c4C3)c2)C(=O)C1` (stereo not drawn) [Example 43, 2-(Cyclopropanecarbonylamino)-N3-(cyclopropylmethyl)-N5-[3-(3-methyl-5-oxo-4H-pyrazol-1-yl)phenyl]-4,5,6,7-tetrahydrobenzothiophene-3,5-dicarboxamide], which IC50 is on record?
Answer: < 1000 nM

Question: `O=C(NCC1CC1)c1c(NC(=O)C2CC2)sc2c1CC(C(=O)Nc1cccc3[nH]ncc13)CC2` (stereo not drawn) [Example 44, 2-(Cyclopropanecarbonylamino)-N3-(cyclopropylmethyl)-N5-(1H-indazol-4-yl)-4,5,6,7-tetrahydrobenzothiophene-3,5-dicarboxamide; 2,2,2-trifluoroacetic acid] was tested. Which IC50 did it give?
Answer: < 1000 nM

Question: How did the IC50 turn out when `O=C(NCC1CC1)c1c(NC(=O)C2CC2)sc2c1CC(C(=O)Nc1ccc3[nH]ncc3c1)CC2` (stereo not drawn) [Example 45, 2-(Cyclopropanecarbonylamino)-N3-(cyclopropylmethyl)-N5-(1H-indazol-5-yl)-4,5,6,7-tetrahydrobenzothiophene-3,5-dicarboxamide; 2,2,2-trifluoroacetic acid] was run?
Answer: < 1000 nM

Question: For `O=C(NCC1CC1)c1c(NC(=O)C2CC2)sc2c1CC(c1nc3nccnc3[nH]1)CC2` (stereo not drawn) [Example 46, 2-(Cyclopropanecarbonylamino)-N-(cyclopropylmethyl)-5-(1H-imidazo[4,5-b]pyrazin-2-yl)-4,5,6,7-tetrahydrobenzothiophene-3-carboxamide], which IC50 is on record?
Answer: < 1000 nM

Question: Which IC50 does the source give for `O=C(NCC1CC1)c1c(NC(=O)C2CC2)sc2c1CC(C(=O)NC1Cc3ccccc3C1)CC2` (stereo not drawn) [Example 47, 2-(Cyclopropanecarbonylamino)-N3-(cyclopropylmethyl)-N5-indan-2-yl-4,5,6,7-tetrahydrobenzothiophene-3,5-dicarboxamide] here?
Answer: < 1000 nM

Question: How did the IC50 turn out when `COc1ccc(CCNC(=O)C2CCc3sc(NC(=O)C4CC4)c(C(=O)NCC4CC4)c3C2)cc1` (stereo not drawn) [Example 48, 2-(Cyclopropanecarbonylamino)-N3-(cyclopropylmethyl)-N5-[2-(4-methoxyphenyl)ethyl]-4,5,6,7-tetrahydrobenzothiophene-3,5-dicarboxamide] was run?
Answer: < 1000 nM

Question: Which IC50 does the source give for `O=C(NCC1CC1)c1c(NC(=O)C2CC2)sc2c1CC(C(=O)Nc1ccc3nccnc3c1)CC2` (stereo not drawn) [Example 49, 2-(Cyclopropanecarbonylamino)-N3-(cyclopropylmethyl)-N5-quinoxalin-6-yl-4,5,6,7-tetrahydrobenzothiophene-3,5-dicarboxamide] here?
Answer: < 1000 nM

Question: With `O=C(NCC1CC1)c1c(NC(=O)C2CC2)sc2c1CC(C(=O)Nc1nccs1)CC2` (stereo not drawn) [Example 50, 2-(Cyclopropanecarbonylamino)-N3-(cyclopropylmethyl)-N5-thiazol-2-yl-4,5,6,7-tetrahydrobenzothiophene-3,5-dicarboxamide] as the molecule, how does the IC50 read?
Answer: < 1000 nM

Question: With `O=C(NCC1CC1)c1c(NC(=O)C2CC2)sc2c1CC(C(=O)Nc1nnn[nH]1)CC2` (stereo not drawn) [Example 51, 2-(Cyclopropanecarbonylamino)-N3-(cyclopropylmethyl)-N5-(1H-tetrazol-5-yl)-4,5,6,7-tetrahydrobenzothiophene-3,5-dicarboxamide] as the molecule, how does the IC50 read?
Answer: < 1000 nM

Question: For `O=C(NCC1CC1)c1c(NC(=O)C2CC2)sc2c1CC(C(=O)Nc1ccncc1)CC2` (stereo not drawn) [Example 52, 2-(Cyclopropanecarbonylamino)-N3-(cyclopropylmethyl)-N5-(4-pyridyl)-4,5,6,7-tetrahydrobenzothiophene-3,5-dicarboxamide], which IC50 is on record?
Answer: < 1000 nM

Question: `O=C(NCC1CC1)c1c(NC(=O)C2CC2)sc2c1CC(C(=O)Nc1cnccn1)CC2` (stereo not drawn) [Example 53, 2-(Cyclopropanecarbonylamino)-N3-(cyclopropylmethyl)-N5-pyrazin-2-yl-4,5,6,7-tetrahydrobenzothiophene-3,5-dicarboxamide] was tested. Which IC50 did it give?
Answer: < 1000 nM

Question: With `O=C(NCC1CC1)c1c(NC(=O)C2CC2)sc2c1CC(C(=O)Nc1cccnc1)CC2` (stereo not drawn) [Example 54, 2-(Cyclopropanecarbonylamino)-N3-(cyclopropylmethyl)-N5-(3-pyridyl)-4,5,6,7-tetrahydrobenzothiophene-3,5-dicarboxamide] as the molecule, how does the IC50 read?
Answer: < 1000 nM

Question: `O=C(NCC1CC1)c1c(NC(=O)C2CC2)sc2c1CC(C(=O)N1CC(O)C1)CC2` (stereo not drawn) [Example 55, 2-(Cyclopropanecarbonylamino)-N-(cyclopropylmethyl)-5-(3-hydroxyazetidine-1-carbonyl)-4,5,6,7-tetrahydrobenzothiophene-3-carboxamide] was tested. Which IC50 did it give?
Answer: 10000 to 50000 nM
